≈ marks a conversion by molar mass, not a printed value.
Assays:
[1] = Inhibition of Pseudomonas fluorescens FabG assessed as inhibition
[2] = Inhibition of Plasmodium falciparum NF54 HDAC using extract measured after 60 mins by fluorescence assay
[3] = Inhibition of Pseudomonas fluorescens FabI assessed as inhibition
Vibrio cholerae = experiment: Antibacterial activity against Vibrio cholerae; format: functional
Staphylococcus aureus [4] = experiment: Antibacterial activity against Staphylococcus aureus ATCC 11632 assessed as reduction in bacterial growth at 25 ug/ml measured after 24 hrs serial dilution method; format: functional; settings: dose 25 µg/ml
Bacillus subtilis = experiment: Antibacterial activity against Bacillus subtilis ATCC 60511 assessed as reduction in bacterial growth at 25 ug/ml measured after 24 hrs serial dilution method; format: functional; settings: dose 25 µg/ml
Escherichia coli [5] = experiment: Antibacterial activity against Escherichia coli ATCC 8730 assessed as inhibition of bacterial growth; format: functional
Staphylococcus aureus [6] = experiment: Antibacterial activity against Methicillin-resistant Staphylococcus aureus N315 assessed as reduction in bacterial growth; format: functional
[7] = molecular target: T1, Enoyl-[acyl-carrier-protein] reductase [NADH] FabI (Escherichia coli K-12, UniProt P0AEK4); experiment: Inhibition of Escherichia coli DH5alpha FabI in the presence of NADH using crotonyl CoA as substrate by measuring NADH consumption rate
T1 sequence (P0AEK4 whole entry): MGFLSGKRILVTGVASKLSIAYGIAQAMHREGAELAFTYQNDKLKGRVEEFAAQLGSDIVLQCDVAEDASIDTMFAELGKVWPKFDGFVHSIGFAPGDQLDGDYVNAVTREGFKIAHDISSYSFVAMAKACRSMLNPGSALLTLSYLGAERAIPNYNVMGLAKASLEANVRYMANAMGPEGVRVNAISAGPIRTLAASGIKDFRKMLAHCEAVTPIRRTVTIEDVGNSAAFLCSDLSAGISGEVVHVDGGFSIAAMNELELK

[8] = molecular target: T2, Enoyl-[acyl-carrier-protein] reductase [NADPH] FabI (Staphylococcus aureus, UniProt Q6GI75); experiment: Inhibition of Staphylococcus aureus ATCC 29213 FabI in the presence of NADH using crotonyl CoA as substrate by measuring NADH consumption rate
T2 sequence (Q6GI75 whole entry): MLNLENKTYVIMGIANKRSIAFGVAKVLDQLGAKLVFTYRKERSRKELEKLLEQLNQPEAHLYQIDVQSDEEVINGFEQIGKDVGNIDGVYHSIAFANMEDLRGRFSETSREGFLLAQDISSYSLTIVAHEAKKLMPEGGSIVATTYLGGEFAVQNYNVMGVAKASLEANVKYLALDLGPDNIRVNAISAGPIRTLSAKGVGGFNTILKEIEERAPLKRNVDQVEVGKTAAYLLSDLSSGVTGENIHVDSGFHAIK

Escherichia coli [9] = experiment: Antibacterial activity against Escherichia coli assessed as inhibition of LPS biosynthesis; format: functional
[10] = system: Mycobacterium tuberculosis; experiment: Antimycobacterial activity against Mycobacterium tuberculosis H37Rv; format: functional
[11] = system: Mycobacterium tuberculosis; experiment: Antimycobacterial activity against Mycobacterium tuberculosis H37Rv after 14 days; format: functional; settings: 336 h, time 14 day
[12] = molecular target: T2, Enoyl-[acyl-carrier-protein] reductase [NADPH] FabI; experiment: Inhibition of Staphylococcus aureus FabI in the presence of NADH using crotonyl CoA as substrate by measuring NADH consumption rate
[13] = molecular target: T1, Enoyl-[acyl-carrier-protein] reductase [NADH] FabI; experiment: Inhibition of Escherichia coli FabI in the presence of NADH using crotonyl CoA as substrate by measuring NADH consumption rate
Staphylococcus aureus [14] = experiment: Antibacterial activity against Staphylococcus aureus assessed as inhibition of bacterial growth measured after 24 hrs; format: functional
Moraxella catarrhalis = experiment: Antibacterial activity against Moraxella catarrhalis assessed as inhibition in bacterial growth measured after 24 hrs by broth microdilution method; format: functional
Staphylococcus aureus [15] = experiment: Antibacterial activity against Methicillin-resistant Staphylococcus aureus ATCC 33592 assessed as bacterial growth inhibition measured after 24 hrs by broth dilution method; format: functional
Staphylococcus aureus [16] = experiment: Antibacterial activity against quinolone-resistant Staphylococcus aureus; format: functional

## C=C1C(=O)OC[C@H]1C(O)/C=C(\C)CC(=O)C=C(C)C (some centres not stated)
[1]
  IC50: 75 µg/mL (≈ 284 µM)
[2]
  IC50: 20 µg/mL (≈ 75.7 µM)
[3]
  IC50: 20 µg/mL (≈ 75.7 µM)

## O=C(NN1C(=O)CC1c1cc2cc(Br)ccc2nc1Cl)c1ccncc1 (configuration not stated)
Vibrio cholerae
  MIC: 0.4 µg/mL (≈ 0.927 µM)
Staphylococcus aureus [4]
  MIC: 12.5 µg/mL (≈ 29 µM)
Bacillus subtilis
  MIC: 12.5 µg/mL (≈ 29 µM)
Escherichia coli [5]
  MIC: 0.4 µg/mL (≈ 0.927 µM)

## Cc1cccc(Cl)c1Cc1c(Cl)n(Cc2cccc(Cl)c2)ccc1=O
Staphylococcus aureus [6]
  MIC90: 0.5 µg/mL (≈ 1.27 µM)
[7]
  IC50: 340 nM
[8]
  IC50: 340 nM

## CCCS(=O)(=O)N1N=Cc2cc(C)sc2B1O
Escherichia coli [9]
  MIC: 1.25 µg/mL (≈ 4.59 µM)

## COc1nc2ccc(C)cc2cc1C1CC(=O)N1NC(=O)c1ccc(-n2cccc2)cc1 (configuration not stated)
Vibrio cholerae
  MIC: 0.4 µg/mL (≈ 0.938 µM)
Staphylococcus aureus [4]
  MIC: 12.5 µg/mL (≈ 29.3 µM)
Bacillus subtilis
  MIC: 12.5 µg/mL (≈ 29.3 µM)
Escherichia coli [5]
  MIC: 0.4 µg/mL (≈ 0.938 µM)

## Cc1cccc(Cl)c1Cc1c(Cl)n(Cc2cccs2)ccc1=O
Staphylococcus aureus [6]
  MIC90: 2 µg/mL (≈ 5.49 µM)
[7]
  IC50: 400 nM
[8]
  IC50: 350 nM

## COc1nc2ccc(Br)cc2cc1C1CC(=O)N1NC(=O)c1ccncc1 (configuration not stated)
Vibrio cholerae
  MIC: 0.4 µg/mL (≈ 0.936 µM)
Staphylococcus aureus [4]
  MIC: 3.12 µg/mL (≈ 7.31 µM)
Bacillus subtilis
  MIC: 3.12 µg/mL (≈ 7.31 µM)
Escherichia coli [5]
  MIC: 0.4 µg/mL (≈ 0.936 µM)

## CCCCCCCCCCCCCCCCc1cc(OC2OC(CO)C(O)C(O)C2O)cc(O)c1C(=O)Oc1cc(C)c(C(=O)O)c(O)c1 (configuration not stated)
[8]
  IC50: 3200 nM

## COc1nc2ccc(Br)cc2cc1/C=N/NC(=O)c1ccc(-n2cccc2)cc1
[10]
  MIC: 1.6 µg/mL (≈ 3.56 µM)

## Oc1cc(Cn2cc(C3CC3)nn2)ccc1Oc1ccccc1Cl
[11]
  MIC: 0.156 µg/mL (≈ 0.456 µM)

## C=C1C(=O)OC[C@H]1C(/C=C(\C)CC(=O)C=C(C)C)OC(C)=O (some centres not stated)
[1]
  IC50: 50 µg/mL (≈ 163 µM)
[3]
  IC50: 25 µg/mL (≈ 81.6 µM)

## COc1nc2ccc(C)cc2cc1/C=N/NC(=O)c1ccc(-n2cccc2)cc1
[10]
  MIC: 1.6 µg/mL (≈ 4.16 µM)

## CC(C)CCCC/C=C\CCCCCCCC(=O)O
[12]
  IC50: 16300 nM

## Cc1ccc(Cn2cnc(-c3ccsc3)c2)cc1
[12]
  IC50: 360 nM
[13]
  IC50: 3920 nM

## COc1ccc(-c2cn(Cc3ccc(C)cc3)cn2)cc1
[12]
  IC50: 250 nM
[13]
  IC50: 6440 nM

## O=C(c1ccc(O)cc1)N1CCc2c(n(Cc3ccc(O)cc3)c3ccccc23)C1
Staphylococcus aureus [14]
  MIC: 0.5 µg/mL (≈ 1.25 µM)
Moraxella catarrhalis
  MIC: 8 µg/mL (≈ 20.1 µM)

## Cc1ccc(C(=O)N2CCc3c(n(Cc4ccc(O)cc4)c4ccccc34)C2)c(O)c1
Staphylococcus aureus [14]
  MIC: 1 µg/mL (≈ 2.42 µM)
Moraxella catarrhalis
  MIC: 4 µg/mL (≈ 9.7 µM)

## CC1CC(=O)c2c(cc3c(-c4c(O)cc(O)c5c(O)c6c(cc45)OC(C)CC6=O)c(O)cc(O)c3c2O)O1 (configuration not stated) [CEPHALOCHROMIN]
[7]
  IC50: 1800 nM
[8]
  IC50: 1900 nM

## Cc1c(N)cccc1Cn1ccc(OCCc2cccs2)cc1=O [CG-400549]
Staphylococcus aureus [6]
  MIC90: 0.25 µg/mL (≈ 0.734 µM)
Staphylococcus aureus [15]
  MIC: 0.25 µg/mL (≈ 0.734 µM)

## CN1C(=O)[C@@H](c2cc(Cl)c(O)c(Cl)c2)NC(=O)[C@@H]2NC(=O)[C@@H](c3cc(Cl)c(O)c(Cl)c3)NC(=O)[C@H](NC(=O)C(=O)c3cc(Cl)c(O)c(Cl)c3)Cc3c[nH]c4c(cccc34)-c3cc2cc(c3O)Oc2ccc(cc2)C[C@H]1C(=O)N[C@@H](C(=O)O)c1ccc(O)cc1 [CHLOROPEPTIN]
Staphylococcus aureus [16]
  MIC: 4 µg/mL (≈ 3.01 µM)
[8]
  IC50: 300 nM

## CN1C(=O)[C@@H](c2cc(Cl)c(O)c(Cl)c2)NC(=O)[C@@H]2NC(=O)[C@@H](c3cc(Cl)c(O)c(Cl)c3)NC(=O)[C@H](NC(=O)C(=O)c3cc(Cl)c(O)c(Cl)c3)CC3C(=O)Nc4cc(ccc43)-c3cc2cc(c3O)Oc2ccc(cc2)C[C@H]1C(=O)N[C@@H](C(=O)O)c1ccc(O)cc1 (some centres not stated) [COMPLESTATINS A]
Staphylococcus aureus [16]
  MIC: 4 µg/mL (≈ 2.97 µM)
[8]
  IC50: 600 nM

## CC(C)=CCc1c(O)cc(-c2cc3ccc(O)cc3o2)cc1O [MORACIN C]
Staphylococcus aureus [14]
  MIC: 32 µg/mL (≈ 103 µM)

## CC(=O)c1cc2c(=O)c3c(C(=O)O)c(O)c(O)cc3oc2c(C(C)=O)c1-c1coc2cc(O)c(O)c(C(=O)O)c2c1=O [VINAXANTHONE]
[8]
  IC50: 900 nM

From ChEMBL document CHEMBL5230110, “FabI (enoyl acyl carrier protein reductase) - A potential broad spectrum therapeutic target and its inhibitors” (Eur J Med Chem, 2020)
